Test results: paper PMC9770960 (Science Advances, 2022)
Counter-ions that a name gives are not always drawn.

Biological target: T1, Rec1-resilin (Drosophila melanogaster, UniProt Q9V7U0)
T1 sequence (Q9V7U0 18-322 limits assumed): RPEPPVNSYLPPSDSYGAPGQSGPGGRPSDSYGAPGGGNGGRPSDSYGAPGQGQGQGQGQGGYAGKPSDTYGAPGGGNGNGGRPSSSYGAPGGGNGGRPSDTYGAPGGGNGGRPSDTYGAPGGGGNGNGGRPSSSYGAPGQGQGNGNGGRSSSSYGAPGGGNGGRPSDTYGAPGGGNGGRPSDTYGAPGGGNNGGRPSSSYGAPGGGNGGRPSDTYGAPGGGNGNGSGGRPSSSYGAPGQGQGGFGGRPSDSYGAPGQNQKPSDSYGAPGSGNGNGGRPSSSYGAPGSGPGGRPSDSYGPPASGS
Assay: ANS fluorescence titration, Scatchard plot
Assay type: binding

Kd: 58.8 µM
SMILES: O=S(=O)(O)c1cccc2cccc(Nc3ccccc3)c12 [ANS, 8-anilino-1-naphthalenesulfonic acid (ammonium salt)]
